Drawing on patent US20250179061A1 (SIRONAX LTD., priority 2022, published 2025), this text covers IC50 for 22 compounds.

Counter-ions that a name gives are not always drawn. Like-named read-outs stand apart in the source and are kept apart here.

The experiment concerns HT-29 cells. As to the kind of experiment: HT-29 necroptosis cell viability assay (TNF-α/SMAC mimetic/zVAD-FMK, CellTiter-Glo). The format is cell-based. To be noted: Homo sapiens. The method, boiled down:
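HT-29 cells (~5,000/well, overnight) in FBS-free McCoy's 5A with TNF-α 10 ng/ml, SMAC mimetic 6 μM and zVAD-FMK 10 μM plus 10-point 1:3 compound titration, 20 h at 37°C. ATP measured by CellTiter-Glo luminescence; IC50 as geometric mean of duplicates.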
(In ATP-based viability assays light output follows the ATP content of the culture.)

Where [1] appears, read: HT-29 cells stimulated with TNF-α (10 ng/ml), SMAC mimetic (6 μM) and zVAD-FMK (10 μM), 20 hours, CellTiter-Glo ATP luminescence, geometric mean IC50 from 10 points, read-out: Activity.
Where [2] appears, read: HT-29, HT-29 necroptosis cell viability assay, class symbols for IC50, read-out: Activity.
[3] abbreviates: HT-29, HT-29 necroptosis cell viability, IC50 class symbols, read-out: Activity.
[4] abbreviates: HT-29, HT-29 cells, necroptosis induced by TNF-α/SMAC mimetic/zVAD-FMK, CellTiter-Glo, read-out: Activity (IC50 class).

As to `Cc1nc(N2C[C@H](C#N)[C@@H]2C)sc1Cc1ccc(-n2ncn(Cc3c(F)cccc3F)c2=O)cc1F` [Example 61, (2S,3S)-1-(5-(4-(4-(2,6-difluorobenzyl)-5-oxo-4,5-dihydro-1H-1,2,4-triazol-1-yl)-2-fluorobenzyl)-4-methylthiazol-2-yl)-2-methylazetidine-3-carbonitrile formate], the IC50 under setting [1] was less than 100 nM.

For `CCOC1CN(c2cc(Oc3ccc(-n4ncn(Cc5c(F)cccc5F)c4=O)cc3Cl)c(F)cn2)C1` [Example 495, 2-(3-chloro-4-((2-(3-ethoxyazetidin-1-yl)-5-fluoropyridin-4-yl)oxy)phenyl)-4-(2,6-difluorobenzyl)-2,4-dihydro-3H-1,2,4-triazol-3-one], the IC50 under setting [2] was less than 100 nM.

Regarding `Cc1nc(C(N)=O)sc1Oc1ccc(-n2ncn(Cc3ncccc3F)c2=O)cc1F` [Example 606, 5-(2-fluoro-4-(4-((3-fluoropyridin-2-yl)methyl)-5-oxo-4,5-dihydro-1H-1,2,4-triazol-1-yl)phenoxy)-4-methylthiazole-2-carboxamide], the IC50 under setting [2] was less than 100 nM.

For the compound `Cc1nc(CO)sc1Oc1ccc(-n2ncn(Cc3c(F)cccc3F)c2=O)cc1F` [Example 156, 4-(2,6-difluorobenzyl)-2-(3-fluoro-4-((2-(hydroxymethyl)-4-methylthiazol-5-yl)oxy)phenyl)-2,4-dihydro-3H-1,2,4-triazol-3-one], under setting [2], the IC50 was less than 100 nM.

For the compound `CCOC1CN(c2ncnc(Oc3ccc(-n4ncn(Cc5c(F)cccc5F)c4=O)cc3)c2F)C1` [Example 234, 4-(2,6-difluorobenzyl)-2-(4-((6-(3-ethoxyazetidin-1-yl)-5-fluoropyrimidin-4-yl)oxy)phenyl)-2,4-dihydro-3H-1,2,4-triazol-3-one], the IC50 under setting [3] fell in the range of 100 to 1000 nM.

As for `CC(C)(C)OC(=O)Nc1cc(Oc2ccc(-n3ncn(Cc4c(F)cccc4F)c3=O)cc2)ccn1` [Example 309, tert-butyl (4-(4-(4-(2,6-difluorobenzyl)-5-oxo-4,5-dihydro-1H-1,2,4-triazol-1-yl)phenoxy)pyridin-2-yl)carbamate], the IC50 under setting [3] is less than 100 nM.

In the case of `Cn1ncnc1Oc1ccc(-n2ncn(Cc3c(F)cccc3F)c2=O)cc1` [Example 94, 4-(2,6-difluorobenzyl)-2-(4-((1-methyl-1H-1,2,4-triazol-5-yl)oxy)phenyl)-2,4-dihydro-3H-1,2,4-triazol-3-one], the IC50 under setting [1] was in the range of 1000 to 10000 nM.

In the case of `Cc1nc([C@H](C)O)sc1Oc1ccc(-n2ncn(Cc3c(F)cccc3F)c2=O)cc1F` (single isomer, unassigned) [Example 460], under setting [3], the IC50 is less than 100 nM.

`CCOC1CN(c2cc(Oc3ccc(-n4ncn(Cc5c(F)cccc5F)c4=O)cc3)c(F)cn2)C1` [Example 324, 4-(2,6-difluorobenzyl)-2-(4-((2-(3-ethoxyazetidin-1-yl)-5-fluoropyridin-4-yl)oxy)phenyl)-2,4-dihydro-3H-1,2,4-triazol-3-one]: under setting [3], the IC50 was less than 100 nM.

As for `COc1cc(Oc2ccc(-n3ncn(Cc4c(F)cccc4F)c3=O)cc2)ccn1` [Example 661, 4-(2,6-difluorobenzyl)-2-(4-((2-methoxypyridin-4-yl)oxy)phenyl)-2,4-dihydro-3H-1,2,4-triazol-3-one], the IC50 under setting [4] fell in the range of 100 to 1000 nM.

`Cc1nc(NC2=NC(C)(C)CO2)sc1Oc1ccc(-n2ncn(Cc3c(F)cccc3F)c2=O)cc1Cl` [Example 298, 2-(3-chloro-4-((2-((4,4-dimethyl-4,5-dihydrooxazol-2-yl)amino)-4-methylthiazol-5-yl)oxy)phenyl)-4-(2,6-difluorobenzyl)-2,4-dihydro-3H-1,2,4-triazol-3-one]: the IC50 under setting [3] is less than 100 nM.

With `Cc1nc(N2CC(C)(C#N)C2)sc1Cc1ccc(-n2ncn(Cc3c(F)cccc3F)c2=O)cc1` [Example 512, 1-(5-(4-(4-(2,6-difluorobenzyl)-5-oxo-4,5-dihydro-1H-1,2,4-triazol-1-yl)benzyl)-4-methylthiazol-2-yl)-3-methylazetidine-3-carbonitrile], under setting [2], the IC50 is less than 100 nM.

As to `Cc1nc(C(N)=O)sc1Oc1ncc(-n2nc3n(c2=O)[C@H](c2ccccc2)CC3)cc1F` (single isomer, unassigned) [Example 638], the IC50 under setting [4] is less than 100 nM.

With `O=c1n(Cc2c(F)cccc2F)cnn1-c1ccc(Oc2ccnc(N3CC4(CCOCC4)C3)c2F)cc1` [Example 672, 4-(2,6-difluorobenzyl)-2-(4-((3-fluoro-2-(7-oxa-2-azaspiro[3.5]nonan-2-yl)pyridin-4-yl)oxy)phenyl)-2,4-dihydro-3H-1,2,4-triazol-3-one], the IC50 under setting [4] is less than 100 nM.

For `Cc1nc(N2CC(C)(NC(=O)OC(C)(C)C)C2)sc1C(C)c1ccc(-n2ncn(Cc3c(F)cccc3F)c2=O)cc1` (stereo not shown) [Example 514, tert-butyl (1-(5-(1-(4-(4-(2,6-difluorobenzyl)-5-oxo-4,5-dihydro-1H-1,2,4-triazol-1-yl)phenyl)ethyl)-4-methylthiazol-2-yl)-3-methylazetidin-3-yl)carbamate], under setting [2], the IC50 is less than 100 nM.

As for `Cc1nc(C(C)(C)O)sc1Oc1ccc(-n2nc3n(c2=O)C(c2ccccc2)CC3)cc1F` (stereo not shown) [Example 463, 2-(3-fluoro-4-((2-(2-hydroxypropan-2-yl)-4-methylthiazol-5-yl)oxy)phenyl)-5-phenyl-2,5,6,7-tetrahydro-3H-pyrrolo[2,1-c][1,2,4]triazol-3-one], under setting [3], the IC50 was less than 100 nM.

Take `Cc1nc(N2CC(C)(C#N)C2)sc1C(O)c1ccc(-n2ncn(Cc3c(F)cccc3F)c2=O)cc1` (stereo not shown) [Example 511, 1-(5-((4-(4-(2,6-difluorobenzyl)-5-oxo-4,5-dihydro-1H-1,2,4-triazol-1-yl)phenyl)(hydroxy)methyl)-4-methylthiazol-2-yl)-3-methylazetidine-3-carbonitrile]: under setting [2], the IC50 was 1000 to 10000 nM.

As to `Cc1nc(C2CCCC2)sc1Oc1ccc(-n2ncn(Cc3c(F)cccc3F)c2=O)cc1` [Example 558, 2-(4-((2-cyclopentyl-4-methylthiazol-5-yl)oxy)phenyl)-4-(2,6-difluorobenzyl)-2,4-dihydro-3H-1,2,4-triazol-3-one], the IC50 under setting [2] was less than 100 nM.

Take `CC1CN(c2cc(Oc3ccc(-n4ncn(Cc5c(F)cccc5F)c4=O)cc3)ccn2)CC1C#N` (stereo not shown) [Example 281, 1-(4-(4-(4-(2,6-difluorobenzyl)-5-oxo-4,5-dihydro-1H-1,2,4-triazol-1-yl)phenoxy)pyridin-2-yl)-4-methylpyrrolidine-3-carbonitrile]: the IC50 under setting [3] is less than 100 nM.

Consider `Cc1nc(N2C[C@H](C#N)[C@@H]2C)sc1Oc1ccc(-n2ncn(Cc3c(F)cccc3F)c2=O)cc1` [Example 44, (2S,3S)-1-(5-(4-(4-(2,6-difluorobenzyl)-5-oxo-4,5-dihydro-1H-1,2,4-triazol-1-yl)phenoxy)-4-methylthiazol-2-yl)-2-methylazetidine-3-carbonitrile], for which the IC50 under setting [1] was less than 100 nM.

`O=c1n(-c2ccc(Oc3ccccc3[N+](=O)[O-])cc2)nc(Cl)n1Cc1ccccc1` [Example 430, 4-benzyl-5-chloro-2-(4-(2-nitrophenoxy)phenyl)-2,4-dihydro-3H-1,2,4-triazol-3-one]: the IC50 under setting [3] lay within 100 to 1000 nM.

For `COC(=O)c1ncc(Oc2ccc(-n3ncn(Cc4c(F)cccc4F)c3=O)cc2F)s1` [Example 105, methyl 5-(4-(4-(2,6-difluorobenzyl)-5-oxo-4,5-dihydro-1H-1,2,4-triazol-1-yl)-2-fluorophenoxy)thiazole-2-carboxylate], the IC50 (HT-29, 20 h, read-out: Activity) fell in the range of 100 to 1000 nM.
